{"source": "paper PMC12042115", "about": "(mLife, 2025)", "test_system": "wild‐type BCG cells", "type": "cell-based, M. bovis BCG", "conditions": "for Mean Ratio: GDI5755_2d vs DMSO_2d; for Mean Ratio / Mean Ratio (GDI5755_2d vs DMSO_2d): up-regulated; for Mean_Ratio (GDI5755_3d vs DMSO_3d): down-regulated, 3 d; for Mean Ratio (GDI5755_2d vs DMSO_2d): 2d", "note": "Where two headings read alike, the source gives them in different places.", "data": [{"smiles": "O=C(Oc1ccc(Cl)cc1)c1ccc(N2CCOCC2)c([N+](=O)[O-])c1", "note": "[GDI‐5755]", "values": [{"measurement": "Mean Ratio", "setting": "protein A1KKK9 Transcriptional regulator MraZ", "value": 1.25}, {"measurement": "Mean_Ratio (GDI5755_3d vs DMSO_3d)", "setting": "protein A1KKR8, BCG_2242 (Rv2225), 3-methyl-2-oxobutanoate hydroxymethyltransferase", "value": 0.748}, {"measurement": "Mean_Ratio (GDI5755_3d vs DMSO_3d)", "setting": "protein A1KLF3, BCG_2477c (Rv2457c), ATP-dependent Clp protease ATP-binding subunit ClpX", "value": 0.743}, {"measurement": "Mean_Ratio (GDI5755_3d vs DMSO_3d)", "setting": "protein A1KLT2, BCG_2607c (Rv2584c), Adenine phosphoribosyltransferase", "value": 0.7}, {"measurement": "Mean_Ratio (GDI5755_3d vs DMSO_3d)", "setting": "protein A1KMA6, BCG_2781c (Rv2764c), Thymidylate synthase", "value": 0.7}, {"measurement": "Mean Ratio (GDI5755_2d vs DMSO_2d)", "setting": "protein A1KNI8 UPF0182 protein BCG_3215c", "value": 1.34}, {"measurement": "Mean Ratio", "setting": "protein A1KNQ0 Adenosylhomocysteinase", "value": 1.26}, {"measurement": "Mean_Ratio (GDI5755_3d vs DMSO_3d)", "setting": "protein A1KQ47, BCG_3775c (Rv3715c), Recombination protein RecR", "value": 0.7}, {"measurement": "Mean Ratio (GDI5755_2d vs DMSO_2d)", "setting": "protein BCG_0095 A1KEN2 UPF0182 protein", "value": 1.41}, {"measurement": "Mean Ratio (GDI5755_2d vs DMSO_2d)", "setting": "protein BCG_0108c A0A0H3M9Q4 Probable oxidoreductase", "value": 1.77}, {"measurement": "Mean Ratio (GDI5755_2d vs DMSO_2d)", "setting": "protein BCG_0130 A0A0H3M0N8 Possible oxidoreductase", "value": 1.72}, {"measurement": "Mean Ratio (GDI5755_2d vs DMSO_2d)", "setting": "protein BCG_0132 A0A0H3M2I5 Possible fatty-acid-CoA ligase fadD10", "value": 1.49}, {"measurement": "Mean Ratio (GDI5755_2d vs DMSO_2d)", "setting": "protein BCG_0178 A0A0H3M7D0 DNA glycosylase", "value": 1.58}, {"measurement": "Mean Ratio (GDI5755_2d vs DMSO_2d)", "setting": "protein BCG_0181 A1KEW5 Putative S-adenosyl-L-methionine-dependent methyltransferase", "value": 2.17}, {"measurement": "Mean Ratio (GDI5755_2d vs DMSO_2d)", "setting": "protein BCG_0182 A1KEW6 Putative S-adenosyl-L-methionine-dependent methyltransferase", "value": 2.71}, {"measurement": "Mean Ratio (GDI5755_2d vs DMSO_2d)", "setting": "protein BCG_0228 A0A0H3MA02 Probable conserved integral membrane protein", "value": 1.46}, {"measurement": "Mean Ratio (GDI5755_2d vs DMSO_2d)", "setting": "protein BCG_0248 A1KF31 Phosphoenolpyruvate carboxykinase [GTP],pckG", "value": 1.87}, {"measurement": "Mean Ratio (GDI5755_2d vs DMSO_2d)", "setting": "protein BCG_0282c A0A0H3M7K8 Probable acyl-CoA dehydrogenase fadE5", "value": 1.45}, {"measurement": "Mean Ratio (GDI5755_2d vs DMSO_2d)", "setting": "protein BCG_0289c A0A0H3MA45 HSP20 family protein/ Heat stress induced ribosome-binding protein A,acr2", "value": 3.46}, {"measurement": "Mean Ratio (GDI5755_2d vs DMSO_2d)", "setting": "protein BCG_0353 A0A0H3M1Y1 Transmembrane protein", "value": 1.84}, {"measurement": "Mean Ratio (GDI5755_2d vs DMSO_2d)", "setting": "protein BCG_0380 A0A0H3MAC3 Isoniazid inductible gene protein iniB", "value": 1.73}, {"measurement": "Mean Ratio (GDI5755_2d vs DMSO_2d)", "setting": "protein BCG_0389 A1KFH2 Chaperone protein DnaK", "value": 1.52}, {"measurement": "Mean Ratio (GDI5755_2d vs DMSO_2d)", "setting": "protein BCG_0390 A1KFH3 Protein GrpE", "value": 1.53}, {"measurement": "Mean Ratio (GDI5755_2d vs DMSO_2d)", "setting": "protein BCG_0391 A0A0H3M380 Chaperone protein DnaJ", "value": 1.51}, {"measurement": "Mean Ratio (GDI5755_2d vs DMSO_2d)", "setting": "protein BCG_0422c A0A0H3M7W9 Chaperone protein ClpB", "value": 1.56}, {"measurement": "Mean Ratio (GDI5755_2d vs DMSO_2d)", "setting": "protein BCG_0465c A0A0H3M812 Possible transmembrane protein", "value": 1.45}, {"measurement": "Mean Ratio (GDI5755_2d vs DMSO_2d)", "setting": "protein BCG_0490c A0A0H3M1K6 Probable conserved membrane protein mmpS4", "value": 1.45}, {"measurement": "Mean Ratio (GDI5755_2d vs DMSO_2d)", "setting": "protein BCG_0494c A0A0H3M296 DUF5078 domain-containing protein", "value": 1.52}, {"measurement": "Mean Ratio (GDI5755_2d vs DMSO_2d)", "setting": "protein BCG_0507 A0A0H3M3L9 isocitrate lyase", "value": 1.56}, {"measurement": "Mean Ratio (GDI5755_2d vs DMSO_2d)", "setting": "protein BCG_0517 A0A0H3M881 Possible conserved transmembrane protein", "value": 1.43}, {"measurement": "Mean Ratio (GDI5755_2d vs DMSO_2d)", "setting": "protein BCG_0565 A0A0H3M3T9 Probable gaba permease gabP (4-amino butyrate transport carrier)", "value": 1.46}, {"measurement": "Mean Ratio (GDI5755_2d vs DMSO_2d)", "setting": "protein BCG_0578c A0A0H3M3U8 1,4-dihydroxy-2-naphthoate octaprenyltransferase", "value": 1.66}, {"measurement": "Mean Ratio (GDI5755_2d vs DMSO_2d)", "setting": "protein BCG_0605c A1KG37 2-heptyl-1-hydroxyquinolin-4(1H)-one methyltransferase", "value": 2.76}, {"measurement": "Mean Ratio (GDI5755_2d vs DMSO_2d)", "setting": "protein BCG_0614 A0A0H3M8E5 DUF1918 domain-containing protein", "value": 1.43}, {"measurement": "Mean Ratio (GDI5755_2d vs DMSO_2d)", "setting": "protein BCG_0623c A0A0H3M1W6 PE-PGRS family protein", "value": 1.87}, {"measurement": "Mean Ratio (GDI5755_2d vs DMSO_2d)", "setting": "protein BCG_0725c A0A0H3MAX0 Probable conserved transmembrane transport protein mmpL5", "value": 1.69}, {"measurement": "Mean Ratio (GDI5755_2d vs DMSO_2d)", "setting": "protein BCG_0727 A0A0H3M257 Transcriptional regulator", "value": 1.43}, {"measurement": "Mean Ratio (GDI5755_2d vs DMSO_2d)", "setting": "protein BCG_0761 A0A0H3M268 Possible arylsulfatase atsA", "value": 1.61}, {"measurement": "Mean Ratio (GDI5755_2d vs DMSO_2d)", "setting": "protein BCG_0776c A1KGK7 Putative S-adenosyl-L-methionine-dependent methyltransferase BCG_0776c", "value": 1.55}, {"measurement": "Mean Ratio (GDI5755_2d vs DMSO_2d)", "setting": "protein BCG_0835 A0A0H3M322 Deacetylase", "value": 1.55}, {"measurement": "Mean Ratio (GDI5755_2d vs DMSO_2d)", "setting": "protein BCG_0883 A1KGW3 Putative S-adenosyl-L-methionine-dependent methyltransferase BCG_0883", "value": 1.87}, {"measurement": "Mean Ratio (GDI5755_2d vs DMSO_2d)", "setting": "protein BCG_0969 A0A0H3M4Q4 Possible glycine betaine transport integral membrane protein betP", "value": 1.64}, {"measurement": "Mean Ratio (GDI5755_2d vs DMSO_2d)", "setting": "protein BCG_1053 A0A0H3M3P8 Uncharacterized protein", "value": 1.56}, {"measurement": "Mean Ratio (GDI5755_2d vs DMSO_2d)", "setting": "protein BCG_1115 A0A0H3M9F1 Uncharacterized protein", "value": 1.90}, {"measurement": "Mean Ratio (GDI5755_2d vs DMSO_2d)", "setting": "protein BCG_1130 A0A0H3M9G5 Probable conserved transmembrane protein", "value": 1.64}, {"measurement": "Mean Ratio (GDI5755_2d vs DMSO_2d)", "setting": "protein BCG_1191 A0A0H3M5B0 2-methylcitrate dehydratase", "value": 1.57}, {"measurement": "Mean Ratio (GDI5755_2d vs DMSO_2d)", "setting": "protein BCG_1249 A0A0H3M3D0 L-glutamate gamma-semialdehyde dehydrogenase", "value": 1.49}, {"measurement": "Mean Ratio (GDI5755_2d vs DMSO_2d)", "setting": "protein BCG_1281 A0A0H3M3F3 Alternative RNA polymerase sigma factor sigE", "value": 1.41}, {"measurement": "Mean Ratio (GDI5755_2d vs DMSO_2d)", "setting": "protein BCG_1309c A0A0H3M3H0 Possible membrane protein", "value": 1.44}, {"measurement": "Mean Ratio (GDI5755_2d vs DMSO_2d)", "setting": "protein BCG_1334 A0A0H3M3I9 Lipoprotein lprC", "value": 1.55}, {"measurement": "Mean Ratio (GDI5755_2d vs DMSO_2d)", "setting": "protein BCG_1404c A0A0H3M3N1 Conserved membrane protein", "value": 1.78}, {"measurement": "Mean Ratio (GDI5755_2d vs DMSO_2d)", "setting": "protein BCG_1574c A0A0H3M689 Probable conserved transmembrane transport protein mmpL12", "value": 1.47}, {"measurement": "Mean Ratio (GDI5755_2d vs DMSO_2d)", "setting": "protein BCG_1609 A0A0H3M480 Probable conserved transmembrane transport protein mmpL6", "value": 1.85}, {"measurement": "Mean Ratio (GDI5755_2d vs DMSO_2d)", "setting": "protein BCG_1660c A0A0H3M5A2 Probable integral membrane cytochrome D ubiquinol oxidase (Subunit II) cydB", "value": 1.42}, {"measurement": "Mean Ratio (GDI5755_2d vs DMSO_2d)", "setting": "protein BCG_1661c A0A0H3M4E4 Probable integral membrane cytochrome D ubiquinol oxidase (Subunit I) cydA", "value": 1.57}, {"measurement": "Mean Ratio (GDI5755_2d vs DMSO_2d)", "setting": "protein BCG_1890c A0A0H3MB87 Type II NADH dehydrogenase Ndh/Rv1854c", "value": 1.53}, {"measurement": "Mean Ratio (GDI5755_2d vs DMSO_2d)", "setting": "protein BCG_2010c A0A0H3M561 DUF1490 family protein", "value": 1.88}, {"measurement": "Mean Ratio (GDI5755_2d vs DMSO_2d)", "setting": "protein BCG_2056c A0A0H3MBM9 Possible conserved transmembrane protein", "value": 1.52}, {"measurement": "Mean Ratio (GDI5755_2d vs DMSO_2d)", "setting": "protein BCG_2072c A0A0H3M7M3 Probable transmembrane protein", "value": 2.05}, {"measurement": "Mean Ratio (GDI5755_2d vs DMSO_2d)", "setting": "protein BCG_2419c A0A0H3M8K8 Probable conserved lipoprotein lppR", "value": 1.48}, {"measurement": "Mean Ratio (GDI5755_2d vs DMSO_2d)", "setting": "protein BCG_2583 A0A0H3M7F6 Probable proline and glycine rich transmembrane protein", "value": 1.73}, {"measurement": "Mean Ratio (GDI5755_2d vs DMSO_2d)", "setting": "protein BCG_2657 A0A0H3M963 Archease domain-containing protein", "value": 1.52}, {"measurement": "Mean Ratio (GDI5755_2d vs DMSO_2d)", "setting": "protein BCG_2934c A0A0H3M896 Possible D-amino acid aminohydrolase", "value": 1.77}, {"measurement": "Mean Ratio (GDI5755_2d vs DMSO_2d)", "setting": "protein BCG_2965 A0A0H3MDP7 Probable transposase for insertion sequence element IS1533", "value": 2.65}, {"measurement": "Mean Ratio (GDI5755_2d vs DMSO_2d)", "setting": "protein BCG_3007c A0A0H3M7X4 DNA-binding protein HupB", "value": 1.45}, {"measurement": "Mean Ratio (GDI5755_2d vs DMSO_2d)", "setting": "protein BCG_3038 A0A0H3MA42 Probable lipoprotein lpqA", "value": 1.97}]}]}
